{"source": "patent US20230085307A1", "about": "“PYRIDAZINONE COMPOUND AND HERBICIDE” (NISSAN CHEMICAL CORPORATION, priority 2019, published 2023)", "key": {"[1]": {"test_system": "rice flat sedge", "experiment": "Test Example 3: herbicidal effect by foliage application, Wagner pot (Table 18, symbol E)", "assay_type": "in vivo, rice flat sedge (Cyperus iria)", "conditions": "272 g/ha", "method_in_brief": "(§1)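 Plants were sown in alluvial soil held under 0.1–0.5 cm standing water and grown 14 days in a greenhouse at 25–30 °C. An emulsifiable formulation, water-diluted to the set dose, was then sprayed onto the foliage, and effects were scored three weeks later using previously defined criteria.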"}, "[2]": {"test_system": "chickweed", "experiment": "Test Example 4: herbicidal effect by soil treatment (Table 19, symbol P)", "assay_type": "in vivo, common chickweed (Stellaria media)", "conditions": "amount of applied herbicide 272 g/ha", "method_in_brief": "(§2)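 Step 1: sow seeds in sterilized diluvial soil, cover ~1.5 cm. Step 2: spray diluted emulsion onto soil surface at predetermined rate. Step 3: greenhouse, 25–30° C, three weeks. Step 4: grade effect on each plant by earlier criteria.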"}, "[3]": {"test_system": "southern crabgrass", "experiment": "Test Example 4: herbicidal effect by soil treatment (Table 19, symbol F)", "assay_type": "in vivo, southern crabgrass (Digitaria ciliaris)", "conditions": "amount of applied herbicide 272 g/ha", "method_in_brief": "as §2"}, "[4]": {"test_system": "late watergrass", "experiment": "Test Example 1: herbicidal activity, application before weed generation under submerged conditions (Table 16, symbol A)", "assay_type": "in vivo, late watergrass (Echinochloa oryzicola)", "conditions": "272 g/ha applied herbicide", "method_in_brief": "(§3)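 Emulsion formulation, water-diluted to set dose, was put onto the flooded surface (4 cm depth, alluvial soil) the same day weeds were sown and 2.5-leaf rice transplanted. After 3 weeks at 25-30 °C under glass, each species was rated 0 (≤5% kill) to 5 (≥90% kill).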"}, "[5]": {"test_system": "lambsquarters", "experiment": "Test Example 4: herbicidal effect by soil treatment (Table 19, symbol O)", "assay_type": "in vivo, lambsquarters (Chenopodium album)", "conditions": "amount of applied herbicide 272 g/ha", "method_in_brief": "as §2"}, "[6]": {"test_system": "green foxtail", "experiment": "Test Example 4: herbicidal effect by soil treatment (Table 19, symbol G)", "assay_type": "in vivo, green foxtail (Setaria viridis)", "conditions": "amount of applied herbicide 272 g/ha", "method_in_brief": "as §2"}, "[7]": {"test_system": "barnyard grass", "experiment": "Test Example 3: herbicidal effect by foliage application, Wagner pot (Table 18, symbol H)", "assay_type": "in vivo, barnyard grass (Echinochloa crus-galli)", "conditions": "272 g/ha", "method_in_brief": "as §1"}, "[8]": {"test_system": "chickweed", "experiment": "Test Example 5: herbicidal effect by foliage application, plastic box (Table 20, symbol P)", "assay_type": "in vivo, common chickweed (Stellaria media)", "conditions": "foliage application, 272 g/ha, three weeks after application", "method_in_brief": "(§4)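 Foliar spray test: emulsion formulation diluted in water to a set application rate, sprayed onto 14-day-old plants raised in diluvial soil at 25° C to 30° C under glass. Both herbicidal effect and crop effect rated visually three weeks later.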"}, "[9]": {"test_system": "wild oat", "experiment": "Test Example 4: herbicidal effect by soil treatment (Table 19, symbol I)", "assay_type": "in vivo, wild oat (Avena fatua)", "conditions": "amount of applied herbicide 272 g/ha", "method_in_brief": "as §2"}, "[10]": {"test_system": "redroot pigweed", "experiment": "Test Example 5: herbicidal effect by foliage application, plastic box (Table 20, symbol N)", "assay_type": "in vivo, redroot pigweed (Amaranthus retroflexus)", "conditions": "foliage application, 272 g/ha, three weeks after application", "method_in_brief": "as §4"}, "[11]": {"test_system": "velvetleaf", "experiment": "Test Example 4: herbicidal effect by soil treatment (Table 19, symbol M)", "assay_type": "in vivo, velvetleaf (Abutilon theophrasti)", "conditions": "amount of applied herbicide 272 g/ha", "method_in_brief": "as §2"}, "[12]": {"test_system": "blackgrass", "experiment": "Test Example 5: herbicidal effect by foliage application, plastic box (Table 20, symbol J)", "assay_type": "in vivo, blackgrass (Alopecurus myosuroides)", "conditions": "foliage application, 272 g/ha, three weeks after application", "method_in_brief": "as §4"}, "[13]": {"test_system": "Italian ryegrass", "experiment": "Test Example 5: herbicidal effect by foliage application, plastic box (Table 20, symbol K)", "assay_type": "in vivo, Italian ryegrass (Lolium multiflorum)", "conditions": "foliage application, 272 g/ha, three weeks after application", "method_in_brief": "as §4"}, "[14]": {"test_system": "lambsquarters", "experiment": "Test Example 5: herbicidal effect by foliage application, plastic box (Table 20, symbol O)", "assay_type": "in vivo, lambsquarters (Chenopodium album)", "conditions": "foliage application, 272 g/ha, three weeks after application", "method_in_brief": "as §4"}, "[15]": {"test_system": "persian speedwell", "experiment": "Test Example 5: herbicidal effect by foliage application, plastic box (Table 20, symbol R)", "assay_type": "in vivo, Persian speedwell (Veronica persica)", "conditions": "foliage application, 272 g/ha, three weeks after application", "method_in_brief": "as §4"}, "[16]": {"test_system": "persian speedwell", "experiment": "Test Example 4: herbicidal effect by soil treatment (Table 19, symbol R)", "assay_type": "in vivo, Persian speedwell (Veronica persica)", "conditions": "amount of applied herbicide 272 g/ha", "method_in_brief": "as §2"}, "[17]": {"test_system": "wild oat", "experiment": "Test Example 5: herbicidal effect by foliage application, plastic box (Table 20, symbol I)", "assay_type": "in vivo, wild oat (Avena fatua)", "conditions": "foliage application, 272 g/ha, three weeks after application", "method_in_brief": "as §4"}, "[18]": {"test_system": "redroot pigweed", "experiment": "Test Example 4: herbicidal effect by soil treatment (Table 19, symbol N)", "assay_type": "in vivo, redroot pigweed (Amaranthus retroflexus)", "conditions": "amount of applied herbicide 272 g/ha", "method_in_brief": "as §2"}, "[19]": {"test_system": "barnyard grass", "experiment": "Test Example 5: herbicidal effect by foliage application, plastic box (Table 20, symbol H)", "assay_type": "in vivo, barnyard grass (Echinochloa crus-galli)", "conditions": "foliage application, 272 g/ha, three weeks after application", "method_in_brief": "as §4"}, "[20]": {"test_system": "Japanese bulrush", "experiment": "Test Example 1: herbicidal activity, application before weed generation under submerged conditions (Table 16, symbol B)", "assay_type": "in vivo, Japanese bulrush (Schoenoplectus juncoides)", "conditions": "272 g/ha applied herbicide", "method_in_brief": "as §3"}, "[21]": {"test_system": "windgrass", "experiment": "Test Example 4: herbicidal effect by soil treatment (Table 19, symbol L)", "assay_type": "in vivo, windgrass (Apera spica-venti)", "conditions": "amount of applied herbicide 272 g/ha", "method_in_brief": "as §2"}, "[22]": {"test_system": "southern crabgrass", "experiment": "Test Example 5: herbicidal effect by foliage application, plastic box (Table 20, symbol F)", "assay_type": "in vivo, southern crabgrass (Digitaria ciliaris)", "conditions": "foliage application, 272 g/ha, three weeks after application", "method_in_brief": "as §4"}, "[23]": {"test_system": "Chinese sprangletop", "experiment": "Test Example 3: herbicidal effect by foliage application, Wagner pot (Table 18, symbol D)", "assay_type": "in vivo, chinese sprangletop (Leptochloa chinensis)", "conditions": "272 g/ha", "method_in_brief": "as §1"}, "[24]": {"test_system": "velvetleaf", "experiment": "Test Example 5: herbicidal effect by foliage application, plastic box (Table 20, symbol M)", "assay_type": "in vivo, velvetleaf (Abutilon theophrasti)", "conditions": "foliage application, 272 g/ha, three weeks after application", "method_in_brief": "as §4"}, "[25]": {"test_system": "oval-leafed pondweed", "experiment": "Test Example 1: herbicidal activity, application before weed generation under submerged conditions (Table 16, symbol C)", "assay_type": "in vivo, oval-leafed pondweed (Monochoria vaginalis)", "conditions": "272 g/ha applied herbicide", "method_in_brief": "as §3"}, "[26]": {"test_system": "blackgrass", "experiment": "Test Example 4: herbicidal effect by soil treatment (Table 19, symbol J)", "assay_type": "in vivo, blackgrass (Alopecurus myosuroides)", "conditions": "amount of applied herbicide 272 g/ha", "method_in_brief": "as §2"}, "[27]": {"test_system": "windgrass", "experiment": "Test Example 5: herbicidal effect by foliage application, plastic box (Table 20, symbol L)", "assay_type": "in vivo, windgrass (Apera spica-venti)", "conditions": "foliage application, 272 g/ha, three weeks after application", "method_in_brief": "as §4"}, "[28]": {"test_system": "Italian ryegrass", "experiment": "Test Example 4: herbicidal effect by soil treatment (Table 19, symbol K)", "assay_type": "in vivo, Italian ryegrass (Lolium multiflorum)", "conditions": "amount of applied herbicide 272 g/ha", "method_in_brief": "as §2"}, "[29]": {"test_system": "barnyard grass", "experiment": "Test Example 4: herbicidal effect by soil treatment (Table 19, symbol H)", "assay_type": "in vivo, barnyard grass (Echinochloa crus-galli)", "conditions": "amount of applied herbicide 272 g/ha", "method_in_brief": "as §2"}, "[30]": {"test_system": "green foxtail", "experiment": "Test Example 5: herbicidal effect by foliage application, plastic box (Table 20, symbol G)", "assay_type": "in vivo, green foxtail (Setaria viridis)", "conditions": "foliage application, 272 g/ha, three weeks after application", "method_in_brief": "as §4"}}}
{"smiles": "COc1cc(F)ccc1-c1sc2ccccc2c1-c1c(O)c(C)nn(C)c1=O", "note": "[1-055]", "values": [{"measurement": "herbicidal effect on E (rice flat sedge), rating 0-5", "setting": "[1]", "result": "5 (Herbicidal rate of 90% or more (almost completely withered))"}, {"measurement": "herbicidal effect rating, P: chickweed", "setting": "[2]", "result": "5 (Herbicidal rate of 90% or more (almost completely withered))"}, {"measurement": "herbicidal effect rating, F: southern crabgrass", "setting": "[3]", "result": "2 (Herbicidal rate of 20% or more and less than 40%)"}, {"measurement": "Herbicidal effect on A: late watergrass (grade 0-5)", "setting": "[4]", "result": "4 (Herbicidal rate of 70% or more and less than 90%)"}, {"measurement": "herbicidal effect rating, O: lambsquarters", "setting": "[5]", "result": "4 (Herbicidal rate of 70% or more and less than 90%)"}, {"measurement": "herbicidal effect rating, G: green foxtail", "setting": "[6]", "result": "5 (Herbicidal rate of 90% or more (almost completely withered))"}, {"measurement": "herbicidal effect on H (barnyard grass), rating 0-5", "setting": "[7]", "result": "5 (Herbicidal rate of 90% or more (almost completely withered))"}, {"measurement": "herbicidal effect grade, P: chickweed", "setting": "[8]", "result": "5 (Herbicidal rate of 90% or more (almost completely withered))"}, {"measurement": "herbicidal effect rating, I: wild oat", "setting": "[9]", "result": "3 (Herbicidal rate of 40% or more and less than 70%)"}, {"measurement": "herbicidal effect grade, N: redroot pigweed", "setting": "[10]", "result": "3 (Herbicidal rate of 40% or more and less than 70%)"}, {"measurement": "herbicidal effect rating, M: velvetleaf", "setting": "[11]", "result": "0 (Herbicidal rate of 5% or less (almost no effect))"}, {"measurement": "herbicidal effect grade, J: blackgrass", "setting": "[12]", "result": "5 (Herbicidal rate of 90% or more (almost completely withered))"}, {"measurement": "herbicidal effect grade, K: Italian ryegrass", "setting": "[13]", "result": "4 (Herbicidal rate of 70% or more and less than 90%)"}, {"measurement": "herbicidal effect grade, O: lambsquarters", "setting": "[14]", "result": "2 (Herbicidal rate of 20% or more and less than 40%)"}, {"measurement": "herbicidal effect grade, R: persian speedwell", "setting": "[15]", "result": "4 (Herbicidal rate of 70% or more and less than 90%)"}, {"measurement": "herbicidal effect rating, R: persian speedwell", "setting": "[16]", "result": "5 (Herbicidal rate of 90% or more (almost completely withered))"}, {"measurement": "herbicidal effect grade, I: wild oat", "setting": "[17]", "result": "5 (Herbicidal rate of 90% or more (almost completely withered))"}, {"measurement": "herbicidal effect rating, N: redroot pigweed", "setting": "[18]", "result": "5 (Herbicidal rate of 90% or more (almost completely withered))"}, {"measurement": "herbicidal effect grade, H: barnyard grass", "setting": "[19]", "result": "4 (Herbicidal rate of 70% or more and less than 90%)"}, {"measurement": "Herbicidal effect on B: Japanese bulrush (grade 0-5)", "setting": "[20]", "result": "0 (Herbicidal rate of 5% or less (almost no effect))"}, {"measurement": "herbicidal effect rating, L: windgrass", "setting": "[21]", "result": "3 (Herbicidal rate of 40% or more and less than 70%)"}, {"measurement": "herbicidal effect grade, F: southern crabgrass", "setting": "[22]", "result": "4 (Herbicidal rate of 70% or more and less than 90%)"}, {"measurement": "herbicidal effect on D (Chinese sprangletop), rating 0-5", "setting": "[23]", "result": "2 (Herbicidal rate of 20% or more and less than 40%)"}, {"measurement": "herbicidal effect grade, M: velvetleaf", "setting": "[24]", "result": "3 (Herbicidal rate of 40% or more and less than 70%)"}, {"measurement": "Herbicidal effect on C: oval-leafed pondweed (grade 0-5)", "setting": "[25]", "result": "0 (Herbicidal rate of 5% or less (almost no effect))"}, {"measurement": "herbicidal effect rating, J: blackgrass", "setting": "[26]", "result": "3 (Herbicidal rate of 40% or more and less than 70%)"}, {"measurement": "herbicidal effect grade, L: windgrass", "setting": "[27]", "result": "5 (Herbicidal rate of 90% or more (almost completely withered))"}, {"measurement": "herbicidal effect rating, K: Italian ryegrass", "setting": "[28]", "result": "3 (Herbicidal rate of 40% or more and less than 70%)"}, {"measurement": "herbicidal effect rating, H: barnyard grass", "setting": "[29]", "result": "4 (Herbicidal rate of 70% or more and less than 90%)"}, {"measurement": "herbicidal effect grade, G: green foxtail", "setting": "[30]", "result": "4 (Herbicidal rate of 70% or more and less than 90%)"}]}
